# Measured values reported in ChEMBL document CHEMBL4706583, “2-Anilinoquinoline based arylamides as broad spectrum anticancer agents with B-RAF/C-RAF kinase inhibitory effects: Design, synthesis, in vitro cell-based and oncogenic kinase assessments” (Eur J Med Chem, 2020).
# Activity calls are given as the source filed them. The calls are words filed in the database; no cut-off is given here.
# Tests used:
# Sus scrofa = species: Sus scrofa; assay: Induction of porcine brain tubulin polymerization at 10 uM measured at 30 secs interval for 60 mins by fluorescence assay; assay type: tissue-based
# [1] = tested on: Panel NCI-60 (60 carcinoma cell lines); assay: Growth inhibition of human Panel NCI-60 (60 carcinoma cell lines) cells at 10 uM measured after 48 hrs by SRB assay relative to control; assay type: functional; settings: read-out: GI
# [2] = biological target: RAF proto-oncogene serine/threonine-protein kinase (Homo sapiens, UniProt P04049); assay: Inhibition of human CRAF using MEK1 (K97R) as substrate in presence of [gamma-33P]ATP by scintillation counting method
# [3] = biological target: Serine/threonine-protein kinase B-raf (Homo sapiens, UniProt P15056); assay: Inhibition of human BRAF using MEK1 (K97R) as substrate in presence of [gamma-33P]ATP by scintillation counting method
# [4] = biological target: Serine/threonine-protein kinase B-raf (Homo sapiens, UniProt P15056, V600E); assay: Inhibition of human BRAF V600E mutant using MEK1 (K97R) as substrate in presence of [gamma-33P]ATP by scintillation counting method
# Homo sapiens = species: Homo sapiens; assay: Selectivity ratio of IC50 for inhibition of human BRAF V600E mutant to IC50 for inhibition of human CRAF
# CCRF-CEM = assay: Growth inhibition of human CCRF-CEM cells at 10 uM measured after 48 hrs by SRB assay relative to control; assay type: functional; settings: read-out: GI
# K562 = assay: Growth inhibition of human K562 cells at 10 uM measured after 48 hrs by SRB assay relative to control; assay type: functional; settings: read-out: GI
# MOLT-4 = assay: Growth inhibition of human MOLT-4 cells at 10 uM measured after 48 hrs by SRB assay relative to control; assay type: functional; settings: read-out: GI
# RPMI-8226 = assay: Growth inhibition of human RPMI-8226 cells at 10 uM measured after 48 hrs by SRB assay relative to control; assay type: functional; settings: read-out: GI
# SR = assay: Growth inhibition of human SR cells at 10 uM measured after 48 hrs by SRB assay relative to control; assay type: functional; settings: read-out: GI
# A549 = assay: Growth inhibition of human A549 cells at 10 uM measured after 48 hrs by SRB assay relative to control; assay type: functional; settings: read-out: GI
# HOP-92 = assay: Growth inhibition of human HOP-92 cells at 10 uM measured after 48 hrs by SRB assay relative to control; assay type: functional; settings: read-out: GI
# NCI-H522 = assay: Growth inhibition of human NCI-H522 cells at 10 uM measured after 48 hrs by SRB assay relative to control; assay type: functional; settings: read-out: GI
# HCT-116 = assay: Growth inhibition of human HCT-116 cells at 10 uM measured after 48 hrs by SRB assay relative to control; assay type: functional; settings: read-out: GI
# HT-29 = assay: Growth inhibition of human HT-29 cells at 10 uM measured after 48 hrs by SRB assay relative to control; assay type: functional; settings: read-out: GI
# 786-0 = assay: Growth inhibition of human 786-0 cells at 10 uM measured after 48 hrs by SRB assay relative to control; assay type: functional; settings: read-out: GI
# A498 = assay: Growth inhibition of human A498 cells at 10 uM measured after 48 hrs by SRB assay relative to control; assay type: functional; settings: read-out: GI
# UO-31 = assay: Growth inhibition of human UO-31 cells at 10 uM measured after 48 hrs by SRB assay relative to control; assay type: functional; settings: read-out: GI
# PC-3 = assay: Growth inhibition of human PC-3 cells at 10 uM measured after 48 hrs by SRB assay relative to control; assay type: functional; settings: read-out: GI
# T47D = assay: Growth inhibition of human T47D cells at 10 uM measured after 48 hrs by SRB assay relative to control; assay type: functional; settings: read-out: GI
# Chain of Serine/threonine-protein kinase B-raf (Homo sapiens, UniProt P15056) (P15056 whole entry): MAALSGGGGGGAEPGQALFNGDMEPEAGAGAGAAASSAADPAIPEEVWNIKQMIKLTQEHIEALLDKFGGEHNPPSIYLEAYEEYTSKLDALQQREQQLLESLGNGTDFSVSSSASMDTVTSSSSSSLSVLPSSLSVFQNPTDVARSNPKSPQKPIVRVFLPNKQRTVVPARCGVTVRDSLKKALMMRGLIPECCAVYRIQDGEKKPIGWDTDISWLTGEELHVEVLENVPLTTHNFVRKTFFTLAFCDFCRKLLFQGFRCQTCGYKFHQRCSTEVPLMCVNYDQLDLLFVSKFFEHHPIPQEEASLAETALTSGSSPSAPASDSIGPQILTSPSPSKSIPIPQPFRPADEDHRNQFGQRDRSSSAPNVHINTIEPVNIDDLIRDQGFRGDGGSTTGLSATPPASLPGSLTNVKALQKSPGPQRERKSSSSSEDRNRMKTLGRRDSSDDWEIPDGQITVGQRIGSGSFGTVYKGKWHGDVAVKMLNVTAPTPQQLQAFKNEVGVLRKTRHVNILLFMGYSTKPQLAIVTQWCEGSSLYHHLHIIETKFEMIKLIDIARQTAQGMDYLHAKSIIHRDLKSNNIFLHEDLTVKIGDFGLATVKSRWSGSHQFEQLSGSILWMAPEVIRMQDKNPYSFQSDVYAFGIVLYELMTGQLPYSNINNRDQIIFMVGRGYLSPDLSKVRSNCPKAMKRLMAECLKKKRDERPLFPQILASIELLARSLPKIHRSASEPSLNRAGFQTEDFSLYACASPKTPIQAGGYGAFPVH
# Chain of RAF proto-oncogene serine/threonine-protein kinase (P04049 whole entry): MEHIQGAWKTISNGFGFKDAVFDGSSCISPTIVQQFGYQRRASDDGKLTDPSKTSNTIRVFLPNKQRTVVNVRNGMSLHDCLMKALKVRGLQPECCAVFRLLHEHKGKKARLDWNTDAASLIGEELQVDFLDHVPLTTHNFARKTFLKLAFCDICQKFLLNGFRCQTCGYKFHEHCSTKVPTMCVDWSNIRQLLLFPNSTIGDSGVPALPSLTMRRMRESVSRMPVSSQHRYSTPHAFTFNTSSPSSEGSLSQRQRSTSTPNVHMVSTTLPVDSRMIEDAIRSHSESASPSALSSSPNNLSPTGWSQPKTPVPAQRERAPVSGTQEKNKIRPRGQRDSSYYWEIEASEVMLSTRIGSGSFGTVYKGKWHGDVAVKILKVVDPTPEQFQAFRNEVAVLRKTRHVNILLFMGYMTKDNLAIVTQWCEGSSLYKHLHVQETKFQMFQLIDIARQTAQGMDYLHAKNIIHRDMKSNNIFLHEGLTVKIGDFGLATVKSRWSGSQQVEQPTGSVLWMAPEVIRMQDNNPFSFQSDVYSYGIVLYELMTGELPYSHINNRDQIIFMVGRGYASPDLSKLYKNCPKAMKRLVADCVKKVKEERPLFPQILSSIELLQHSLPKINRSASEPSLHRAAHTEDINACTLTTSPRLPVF
# Chain of Serine/threonine-protein kinase B-raf (Homo sapiens, UniProt P15056, V600E) (P15056 2-766 V600E limits assumed): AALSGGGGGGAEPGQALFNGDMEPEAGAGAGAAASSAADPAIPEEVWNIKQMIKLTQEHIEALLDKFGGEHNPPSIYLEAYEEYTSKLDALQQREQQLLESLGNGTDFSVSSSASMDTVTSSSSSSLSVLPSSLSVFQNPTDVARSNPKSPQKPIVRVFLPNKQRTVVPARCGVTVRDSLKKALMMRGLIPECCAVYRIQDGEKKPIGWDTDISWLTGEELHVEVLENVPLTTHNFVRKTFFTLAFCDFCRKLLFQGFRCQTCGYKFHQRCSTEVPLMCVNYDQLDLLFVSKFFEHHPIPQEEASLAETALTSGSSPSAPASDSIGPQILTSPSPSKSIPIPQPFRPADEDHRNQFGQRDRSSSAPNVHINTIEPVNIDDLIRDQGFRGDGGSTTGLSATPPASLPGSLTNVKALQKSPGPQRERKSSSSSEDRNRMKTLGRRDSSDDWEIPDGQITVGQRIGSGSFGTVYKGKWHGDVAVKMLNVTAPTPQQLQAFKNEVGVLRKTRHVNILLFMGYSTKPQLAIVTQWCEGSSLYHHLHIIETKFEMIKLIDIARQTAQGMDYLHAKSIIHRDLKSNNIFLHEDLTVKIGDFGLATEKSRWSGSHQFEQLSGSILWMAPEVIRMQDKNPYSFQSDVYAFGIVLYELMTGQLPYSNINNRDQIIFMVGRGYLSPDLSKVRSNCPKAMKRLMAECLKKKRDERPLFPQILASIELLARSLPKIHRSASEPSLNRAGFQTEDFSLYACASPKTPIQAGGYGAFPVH
smiles,measurement,setting,value
CC(=O)O[C@H]1C(=O)[C@@]2(C)[C@H]([C@H](OC(=O)c3ccccc3)[C@]3(O)C[C@H](OC(=O)[C@H](O)[C@@H](NC(=O)c4ccccc4)c4ccccc4)C(C)=C1C3(C)C)[C@]1(OC(C)=O)CO[C@@H]1C[C@@H]2O,Activity,Sus scrofa,Active
COc1cccc2nc(Nc3cccc(NC(=O)c4cc(-n5cnc(C)c5)cc(C(F)(F)F)c4)c3)ccc12,inhibition of growth at 10 µM,[1],32.6%
same,IC50,[2],0.414 µM
same,IC50,[3],9.28 µM
same,IC50,[4],1.1 µM
same,Ratio IC50,Homo sapiens,2
COc1cccc2nc(Nc3cccc(NC(=O)c4cc(C(F)(F)F)cc(C(F)(F)F)c4)c3)ccc12,inhibition of growth at 10 µM,[1],13.6%
same,inhibition of growth at 10 µM,CCRF-CEM,34.4%
same,inhibition of growth at 10 µM,K562,77.3%
same,inhibition of growth at 10 µM,MOLT-4,65.2%
same,inhibition of growth at 10 µM,RPMI-8226,41.9%
same,inhibition of growth at 10 µM,SR,57.4%
same,inhibition of growth at 10 µM,A549,48%
same,inhibition of growth at 10 µM,HOP-92,67.5%
same,inhibition of growth at 10 µM,NCI-H522,23.5%
same,inhibition of growth at 10 µM,HCT-116,< 20%
same,inhibition of growth at 10 µM,HT-29,< 20%
same,inhibition of growth at 10 µM,786-0,< 20%
same,inhibition of growth at 10 µM,A498,28.6%
same,inhibition of growth at 10 µM,UO-31,28.2%
same,inhibition of growth at 10 µM,PC-3,62.7%
same,inhibition of growth at 10 µM,T47D,< 20%
same,IC50,[2],4.79 µM
same,IC50,[3],> 100 µM
same,IC50,[4],9.45 µM
